# Results as given in patent US20250041313A1, “COMBINATION THERAPY FOR TREATMENT OF CANCER” (CITY OF HOPE, priority 2023, published 2025).
# Tested on: SBC5 xenograft
# Assay: SBC5 mouse xenograft, Carbo/Leflu study
# Format: in vivo
# Details: Carbo 50 mg/kg, Leflu 7.5 mg/kg, i.p. twice a week
# Description: Athymic nude nu/nu mice were obtained from Charles River, Wilmington, MA, and were acclimated for a week before beginning the experiment. All animal experiments were carried out in accordance with a protocol approved by the Institutional Animal Care and Use Committee COH (IACUC #16004). For treatments, mice were divided into 4 groups with five mice per group and subcutaneously injected into one flank with 2×10^6 SBC3 or SBC5 cells suspensions in 100 μl of PBS. Treatment started on the 14th day when tumors became palpable. Two in vivo studies were done in this project. SBC3 and SBC 5 xenograft with i) vehicle control, ii) […] 50 mg/kg, iii) Leflu 7.5 mg/kg, and iv) […]/Leflu. SBC3 with i) vehicle control, ii) Lur 0.5 mg/kg, iii) Leflu 3.8 mg/kg, and iv) Lur/Leflu. Treatments were given to mice via i.p. twice a week for 6 weeks. Animals were examined daily for signs of tumor growth. Tumors were measured in two dimensions using calipers and body weights were recorded. Animals were photographed on days 1, 5, 10, 15, 20, 25, 30, 35, and 40 after treatment. Tumors were removed on day 40 and photographed. At the end of the study, the mice were euthanized by CO2 asphyxiation followed by cervical dislocation. The tumor weights were compared between groups using an unpaired Student's t-test. […] Mean immunofluorescence intensities were calculated with ZEN 2.3 Lite software.
structure (smiles),measurement,value
"Cc1oncc1C(=O)Nc1ccc(C(F)(F)F)cc1 [Leflunomide, leflunomide]",final tumor weight (day 40),1.49 ± 0.20 g
